Test results from PubChem BioAssay AID2060623 (Molecular Pharmacology Branch, DTP, NCI, 2025).

System: 227483-062-R1-J1-PDC complex spheroids with HUVEC/MSC, viability
Assay: Anticancer human tumor 227483-062-R1-J1-PDC patient-derived pancreatic carcinoma cell line growth inhibition [CLK]
Conditions: for IC50: curve of first compound; for viability, T/C: stronger effect = lower value
Method in brief: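 Multi-cell-type spheroids combined patient-derived tumor cells with HUVEC endothelial cells and human mesenchymal stem cells. Paired agents were dosed in half-log steps down from about clinical Cmax, or from 10 microM where Cmax was unknown.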

[1] = second compound 0.0316 µM, first compound 0.0316 µM
[2] = second compound 0.0316 µM, first compound 0.1 µM
[3] = second compound 0.0316 µM, first compound 0.316 µM
[4] = second compound 0.0316 µM, first compound 1 µM
[5] = second compound 0.0316 µM, first compound 3.16 µM
[6] = second compound 0.0316 µM, first compound 10 µM
[7] = second compound 0.1 µM, first compound 0.0316 µM
[8] = second compound 0.1 µM, first compound 0.1 µM
[9] = second compound 0.1 µM, first compound 0.316 µM
[10] = second compound 0.1 µM, first compound 1 µM
[11] = second compound 0.1 µM, first compound 3.16 µM
[12] = second compound 0.1 µM, first compound 10 µM
[13] = second compound 0.316 µM, first compound 0.0316 µM
[14] = second compound 0.316 µM, first compound 0.1 µM
[15] = second compound 0.316 µM, first compound 0.316 µM
[16] = second compound 0.316 µM, first compound 1 µM
[17] = second compound 0.316 µM, first compound 3.16 µM
[18] = second compound 0.316 µM, first compound 10 µM
[19] = second compound 1 µM, first compound 0.0316 µM
[20] = second compound 1 µM, first compound 0.1 µM
[21] = second compound 1 µM, first compound 0.316 µM
[22] = second compound 1 µM, first compound 1 µM
[23] = second compound 1 µM, first compound 3.16 µM
[24] = second compound 1 µM, first compound 10 µM
[25] = second compound 3.16 µM, first compound 0.0316 µM
[26] = second compound 3.16 µM, first compound 0.1 µM
[27] = second compound 3.16 µM, first compound 0.316 µM
[28] = second compound 3.16 µM, first compound 1 µM
[29] = second compound 3.16 µM, first compound 3.16 µM
[30] = second compound 3.16 µM, first compound 10 µM
[31] = second compound 10 µM, first compound 0.0316 µM
[32] = second compound 10 µM, first compound 0.1 µM
[33] = second compound 10 µM, first compound 0.316 µM
[34] = second compound 10 µM, first compound 1 µM
[35] = second compound 10 µM, first compound 3.16 µM
[36] = second compound 10 µM, first compound 10 µM
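Further: spheroids exposed to compounds for seven days before readout.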
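Wherever viability, T/C is given: percent of DMSO vehicle control luminescence as 100% viability.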

**Q.** How did the IC50 (second compound 0.0316 µM) turn out when `CC1(C)CCC(CN2CCN(c3ccc(C(=O)NS(=O)(=O)c4ccc(NCC5CCOCC5)c([N+](=O)[O-])c4)c(Oc4cnc5[nH]ccc5c4)c3)CC2)=C(c2ccc(Cl)cc2)C1` + CNC(=O)c1ccc(Nc2nc(OC3CCCC3)c3c(-c4ccc5nc(C)oc5c4)c[nH]c3n2)c(OC)c1 was run?
**A.** Its IC50 is 5.96 µM.

**Q.** What about the IC50 (second compound 0.1 µM) of the same compound?
**A.** Its IC50 is 5.53 µM.

**Q.** And the IC50 (second compound 0.316 µM)?
**A.** Its IC50 is 5.27 µM.

**Q.** What about the IC50 (second compound 1 µM) of the same compound?
**A.** The IC50 was 4.51 µM.

**Q.** What about the IC50 (second compound 3.16 µM) of the same compound?
**A.** Its IC50 is 3.45 µM.

**Q.** And the IC50 (second compound 10 µM)?
**A.** Its IC50 is under 0.0316 µM.

**Q.** What about the viability, T/C [1] of the same compound?
**A.** The viability, T/C was 96.7%.

**Q.** What about the viability, T/C [2] of the same compound?
**A.** The viability, T/C was 101%.

**Q.** And the viability, T/C [3]?
**A.** The viability, T/C was 100%.

**Q.** And the viability, T/C [4]?
**A.** The viability, T/C was 121%.

**Q.** What about the viability, T/C [5] of the same compound?
**A.** The viability, T/C was 101%.

**Q.** And the viability, T/C [6]?
**A.** Its viability, T/C is 8.36%.

**Q.** And the viability, T/C [7]?
**A.** The viability, T/C was 90.2%.

**Q.** What about the viability, T/C [8] of the same compound?
**A.** The viability, T/C was 93.6%.

**Q.** And the viability, T/C [9]?
**A.** The viability, T/C was 87.7%.

**Q.** And the viability, T/C [10]?
**A.** Its viability, T/C is 85.9%.

**Q.** What about the viability, T/C [11] of the same compound?
**A.** Its viability, T/C is 87.8%.

**Q.** And the viability, T/C [12]?
**A.** The viability, T/C was 9.86%.

**Q.** What about the viability, T/C [13] of the same compound?
**A.** Its viability, T/C is 100%.

**Q.** What about the viability, T/C [14] of the same compound?
**A.** The viability, T/C was 91.2%.

**Q.** And the viability, T/C [15]?
**A.** Its viability, T/C is 78.7%.

**Q.** And the viability, T/C [16]?
**A.** Its viability, T/C is 88.5%.

**Q.** And the viability, T/C [17]?
**A.** The viability, T/C was 84.6%.

**Q.** What about the viability, T/C [18] of the same compound?
**A.** The viability, T/C was 6.46%.

**Q.** What about the viability, T/C [19] of the same compound?
**A.** The viability, T/C was 70.6%.

**Q.** What about the viability, T/C [20] of the same compound?
**A.** The viability, T/C was 67.2%.

**Q.** What about the viability, T/C [21] of the same compound?
**A.** Its viability, T/C is 73.1%.

**Q.** And the viability, T/C [22]?
**A.** The viability, T/C was 85.3%.

**Q.** And the viability, T/C [23]?
**A.** Its viability, T/C is 67.2%.

**Q.** And the viability, T/C [24]?
**A.** Its viability, T/C is 9.18%.

**Q.** And the viability, T/C [25]?
**A.** Its viability, T/C is 50.3%.

**Q.** And the viability, T/C [26]?
**A.** The viability, T/C was 63.3%.

**Q.** And the viability, T/C [27]?
**A.** Its viability, T/C is 55.3%.

**Q.** What about the viability, T/C [28] of the same compound?
**A.** The viability, T/C was 57.6%.

**Q.** And the viability, T/C [29]?
**A.** Its viability, T/C is 53.3%.

**Q.** And the viability, T/C [30]?
**A.** Its viability, T/C is 7.8%.

**Q.** And the viability, T/C [31]?
**A.** Its viability, T/C is 48%.

**Q.** What about the viability, T/C [32] of the same compound?
**A.** The viability, T/C was 45%.

**Q.** And the viability, T/C [33]?
**A.** The viability, T/C was 51.7%.

**Q.** And the viability, T/C [34]?
**A.** Its viability, T/C is 46.3%.

**Q.** What about the viability, T/C [35] of the same compound?
**A.** Its viability, T/C is 44.1%.

**Q.** What about the viability, T/C [36] of the same compound?
**A.** Its viability, T/C is 9.45%.

**Q.** What does the source list for `CC1COCCN1c1cc(C2(S(C)(=N)=O)CC2)nc(-c2ccnc3[nH]ccc23)n1` (centres undefined) + CNC(=O)c1ccc(Nc2nc(OC3CCCC3)c3c(-c4ccc5nc(C)oc5c4)c[nH]c3n2)c(OC)c1?
**A.** IC50 (second compound 0.0316 µM): > 10 µM; IC50 (second compound 0.1 µM): > 10 µM; IC50 (second compound 0.316 µM): 7.13 µM; IC50 (second compound 1 µM): 1.38 µM; IC50 (second compound 3.16 µM): 0.237 µM; IC50 (second compound 10 µM): < 0.0316 µM; viability, T/C [1]: 110%; viability, T/C [2]: 105%; viability, T/C [3]: 110%; viability, T/C [4]: 102%; viability, T/C [5]: 85.3%; viability, T/C [6]: 63.3%; viability, T/C [7]: 125%; viability, T/C [8]: 108%; viability, T/C [9]: 103%; viability, T/C [10]: 108%; viability, T/C [11]: 65%; viability, T/C [12]: 62.3%; viability, T/C [13]: 96.4%; viability, T/C [14]: 107%; viability, T/C [15]: 92.9%; viability, T/C [16]: 79.7%; viability, T/C [17]: 64.1%; viability, T/C [18]: 44.3%; viability, T/C [19]: 76.8%; viability, T/C [20]: 68.9%; viability, T/C [21]: 73.4%; viability, T/C [22]: 53%; viability, T/C [23]: 39.1%; viability, T/C [24]: 30.6%; viability, T/C [25]: 59.7%; viability, T/C [26]: 52.9%; viability, T/C [27]: 48.1%; viability, T/C [28]: 40.9%; viability, T/C [29]: 33.9%; viability, T/C [30]: 18.6%; viability, T/C [31]: 39.8%; viability, T/C [32]: 34.6%; viability, T/C [33]: 39.5%; viability, T/C [34]: 32.5%; viability, T/C [35]: 24.2%; viability, T/C [36]: 14.5%
